Activity calls are given as the source filed them. The calls are words filed in the database; no cut-off is given here.
How the values were obtained:
[1] = system: T-24; test: Induction of alpha tubulin acetylation in human T24 cells; assay type: functional, cell-based
[2] = system: T-24; test: Induction of histone H3 acetylation in human T24 cells; assay type: functional, cell-based
[3] = biological target: T1, Histone deacetylase 8 (Homo sapiens, UniProt Q9BY41); test: Inhibition of human recombinant histone deacetylase 8
T1 sequence (Q9BY41 whole entry): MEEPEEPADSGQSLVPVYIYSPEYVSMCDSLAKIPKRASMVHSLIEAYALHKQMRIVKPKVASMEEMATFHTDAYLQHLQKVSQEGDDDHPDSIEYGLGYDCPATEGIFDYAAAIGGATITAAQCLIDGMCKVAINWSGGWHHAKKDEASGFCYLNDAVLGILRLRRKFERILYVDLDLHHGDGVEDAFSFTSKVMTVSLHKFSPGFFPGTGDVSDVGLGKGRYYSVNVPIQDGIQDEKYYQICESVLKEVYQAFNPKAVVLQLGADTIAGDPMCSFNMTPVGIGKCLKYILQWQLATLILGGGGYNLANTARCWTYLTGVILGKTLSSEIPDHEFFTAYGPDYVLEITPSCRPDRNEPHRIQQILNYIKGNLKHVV

[4] = organism: Homo sapiens; test: Selectivity ratio of IC50 for human recombinant histone deacetylase 2 to IC50 for human recombinant histone deacetylase 6
[5] = organism: Homo sapiens; test: Selectivity ratio of IC50 for human recombinant histone deacetylase 8 to IC50 for human recombinant histone deacetylase 6
[6] = biological target: Histone deacetylase 2 (Homo sapiens, UniProt Q92769)
Description: Inhibition of human recombinant histone deacetylase 2

[7] = biological target: T2, Protein deacetylase HDAC6 (Homo sapiens, UniProt Q9UBN7)
T2 sequence (Q9UBN7 whole entry): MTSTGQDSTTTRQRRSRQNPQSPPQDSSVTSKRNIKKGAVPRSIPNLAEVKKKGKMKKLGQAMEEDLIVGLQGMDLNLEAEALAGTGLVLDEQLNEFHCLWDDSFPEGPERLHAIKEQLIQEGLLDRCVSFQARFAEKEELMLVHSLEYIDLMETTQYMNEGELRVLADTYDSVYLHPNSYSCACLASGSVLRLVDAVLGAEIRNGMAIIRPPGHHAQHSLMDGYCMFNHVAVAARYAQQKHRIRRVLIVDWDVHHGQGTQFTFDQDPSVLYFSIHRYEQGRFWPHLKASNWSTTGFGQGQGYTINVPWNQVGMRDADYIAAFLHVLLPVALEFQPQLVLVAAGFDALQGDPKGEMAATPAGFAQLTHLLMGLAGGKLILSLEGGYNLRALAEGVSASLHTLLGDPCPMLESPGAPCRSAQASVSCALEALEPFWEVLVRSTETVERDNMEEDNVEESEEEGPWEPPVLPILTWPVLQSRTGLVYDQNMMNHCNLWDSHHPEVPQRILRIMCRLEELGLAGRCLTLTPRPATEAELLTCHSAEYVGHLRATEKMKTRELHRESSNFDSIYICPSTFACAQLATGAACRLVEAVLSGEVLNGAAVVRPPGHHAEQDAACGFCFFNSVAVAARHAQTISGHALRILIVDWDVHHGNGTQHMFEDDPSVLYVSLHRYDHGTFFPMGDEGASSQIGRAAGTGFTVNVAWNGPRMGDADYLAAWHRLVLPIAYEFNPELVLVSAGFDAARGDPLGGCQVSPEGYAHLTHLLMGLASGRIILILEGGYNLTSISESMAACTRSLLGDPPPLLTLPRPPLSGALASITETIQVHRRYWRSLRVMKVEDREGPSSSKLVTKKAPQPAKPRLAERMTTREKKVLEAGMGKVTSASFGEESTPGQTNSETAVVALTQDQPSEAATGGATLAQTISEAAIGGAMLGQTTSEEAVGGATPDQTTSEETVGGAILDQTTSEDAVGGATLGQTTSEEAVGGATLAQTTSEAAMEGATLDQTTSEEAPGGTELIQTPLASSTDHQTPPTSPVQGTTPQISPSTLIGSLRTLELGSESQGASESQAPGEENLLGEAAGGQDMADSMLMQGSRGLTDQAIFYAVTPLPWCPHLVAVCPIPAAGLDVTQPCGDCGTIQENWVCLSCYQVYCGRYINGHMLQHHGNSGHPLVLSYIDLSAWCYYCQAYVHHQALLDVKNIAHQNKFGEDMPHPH
Description: Inhibition of human recombinant histone deacetylase 6

[8] = system: T-24; test: Induction of alpha tubulin acetylation in human T24 cells at 1 uM preincubated 16 hrs before whole-cell lysate by Western blot analysis; assay type: functional, cell-based
[9] = system: T-24; test: Selectivity ratio of EC50 for histone H3 acetylation to EC50 for alpha-tubulin acetylation in human T24 cells

Chain of Histone deacetylase 2 (Q92769 whole entry): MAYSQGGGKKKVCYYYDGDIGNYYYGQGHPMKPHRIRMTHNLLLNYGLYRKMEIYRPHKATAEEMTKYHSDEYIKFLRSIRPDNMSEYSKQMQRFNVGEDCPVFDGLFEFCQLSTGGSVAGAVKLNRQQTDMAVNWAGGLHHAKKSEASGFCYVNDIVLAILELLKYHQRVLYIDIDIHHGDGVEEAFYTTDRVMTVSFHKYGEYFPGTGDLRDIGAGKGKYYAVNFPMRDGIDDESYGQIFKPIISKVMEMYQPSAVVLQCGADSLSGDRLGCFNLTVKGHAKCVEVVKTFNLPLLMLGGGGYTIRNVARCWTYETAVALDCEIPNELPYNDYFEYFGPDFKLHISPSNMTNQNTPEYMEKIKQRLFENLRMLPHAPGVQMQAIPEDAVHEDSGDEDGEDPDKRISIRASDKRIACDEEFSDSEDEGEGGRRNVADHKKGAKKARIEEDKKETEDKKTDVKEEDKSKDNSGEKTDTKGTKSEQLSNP

**Q.** How did the EC50 [1] turn out when `O=C(NO)c1ccc(CN2C(=O)CNC(=O)[C@H]2Cc2cccs2)cc1` was run?
**A.** 2 µM

**Q.** What about the EC50 [2] of the same compound?
**A.** 9 µM

**Q.** And the IC50 [3]?
**A.** 0.44 µM

**Q.** What about the Ratio IC50 [4] of the same compound?
**A.** 22

**Q.** What about the Ratio IC50 [5] of the same compound?
**A.** 3

**Q.** And the IC50 [6]?
**A.** 3.47 µM

**Q.** What about the IC50 [7] of the same compound?
**A.** 0.16 µM

**Q.** For `O=C(NO)c1ccc(CN2c3ccccc3NC(=O)[C@H]2Cc2cccs2)cc1`, which EC50 [1] is on record?
**A.** 0.07 µM

**Q.** And the EC50 [2]?
**A.** 1.22 µM

**Q.** What about the IC50 [3] of the same compound?
**A.** 0.69 µM

**Q.** What about the Ratio IC50 [4] of the same compound?
**A.** 21

**Q.** What about the Ratio IC50 [5] of the same compound?
**A.** 17

**Q.** What about the Activity [8] of the same compound?
**A.** Active

**Q.** And the IC50 [6]?
**A.** 0.87 µM

**Q.** What about the IC50 [7] of the same compound?
**A.** 0.04 µM

**Q.** What about the “Selectivity Index” value [9] of the same compound?
**A.** >13

**Q.** For `CC(/C=C/C(=O)NO)=C\[C@@H](C)C(=O)c1ccc(N(C)C)cc1` (racemic) [TRICHOSTATIN], which EC50 [1] is on record?
**A.** 0.01 µM

**Q.** And the EC50 [2]?
**A.** 0.01 µM

**Q.** How did the EC50 [1] turn out when `O=C(NO)c1ccc(CN2c3ccccc3NC(=O)[C@H]2Cc2ccccc2)cc1` was run?
**A.** 0.04 µM

**Q.** What about the EC50 [2] of the same compound?
**A.** 0.52 µM

**Q.** And the IC50 [3]?
**A.** 0.53 µM

**Q.** And the Ratio IC50 [4]?
**A.** 26

**Q.** And the Ratio IC50 [5]?
**A.** 53

**Q.** What about the IC50 [6] of the same compound?
**A.** 0.26 µM

**Q.** And the IC50 [7]?
**A.** 0.01 µM

**Q.** And the “Selectivity Index” value [9]?
**A.** >13

**Q.** For `O=C(CCCCCCC(=O)Nc1ccc([C@H]2O[C@@H](CSc3nc(-c4ccccc4)c(-c4ccccc4)o3)C[C@@H](c3ccc(CO)cc3)O2)cc1)NO` [TUBACIN], which Selectivity Index [9] is on record?
**A.** 75

**Q.** `O=C(NO)c1ccc(CN2C(=O)CNC(=O)[C@H]2Cc2ccccc2)cc1` was tested. Which EC50 [1] did it give?
**A.** 1.49 µM

**Q.** What about the EC50 [2] of the same compound?
**A.** 23 µM

**Q.** What about the IC50 [3] of the same compound?
**A.** 2.34 µM

**Q.** And the Ratio IC50 [4]?
**A.** 33

**Q.** And the Ratio IC50 [5]?
**A.** 14

**Q.** And the IC50 [6]?
**A.** 5.54 µM

**Q.** And the IC50 [7]?
**A.** 0.17 µM

**Q.** What about the “Selectivity Index” value [9] of the same compound?
**A.** >13

**Q.** Which results are given for `O=C(NO)c1ccc(CN2c3ccccc3NC(=O)[C@H]2Cc2ccc(F)c(F)c2)cc1`?
**A.** IC50 [3]: 0.42 µM; Ratio IC50 [4]: 11; Ratio IC50 [5]: 10; IC50 [6]: 0.46 µM; IC50 [7]: 0.04 µM

**Q.** `O=C(NO)c1ccc(CN2c3ccccc3NC(=O)[C@H]2CCc2ccccc2)cc1` was tested. Which IC50 [3] did it give?
**A.** 0.64 µM

**Q.** And the Ratio IC50 [4]?
**A.** 40

**Q.** And the Ratio IC50 [5]?
**A.** 49

**Q.** And the IC50 [6]?
**A.** 0.52 µM

**Q.** And the IC50 [7]?
**A.** 0.01 µM

**Q.** How did the EC50 [1] turn out when `O=C(NO)c1ccc(CN2c3ccccc3NC(=O)[C@@H]2Cc2ccccc2)cc1` was run?
**A.** 0.32 µM

**Q.** And the EC50 [2]?
**A.** 1.9 µM

**Q.** What about the IC50 [3] of the same compound?
**A.** 0.21 µM

**Q.** What about the Ratio IC50 [4] of the same compound?
**A.** 2

**Q.** What about the Ratio IC50 [5] of the same compound?
**A.** 1

**Q.** What about the IC50 [6] of the same compound?
**A.** 0.46 µM

**Q.** What about the IC50 [7] of the same compound?
**A.** 0.22 µM

**Q.** With `O=C(NO)c1ccc(CN2c3ccccc3NC(=O)[C@@H]2Cc2cccs2)cc1` as the compound, how does the EC50 [1] read?
**A.** 0.23 µM

**Q.** And the EC50 [2]?
**A.** 2.3 µM

**Q.** What about the IC50 [3] of the same compound?
**A.** 1.19 µM

**Q.** And the Ratio IC50 [4]?
**A.** 5

**Q.** What about the Ratio IC50 [5] of the same compound?
**A.** 4

**Q.** And the IC50 [6]?
**A.** 1.48 µM

**Q.** What about the IC50 [7] of the same compound?
**A.** 0.31 µM

**Q.** What does the source list for `O=C(NO)c1ccc(CN2c3ccccc3NC(=O)[C@H]2Cc2ccc(O)cc2)cc1`?
**A.** IC50 [3]: 0.73 µM; Ratio IC50 [4]: 41; Ratio IC50 [5]: 91; IC50 [6]: 0.33 µM; IC50 [7]: 0.01 µM

**Q.** How did the EC50 [1] turn out when `CC(C)(C)OC(=O)NCCCC[C@@H]1C(=O)Nc2ccccc2N1Cc1ccc(C(=O)NO)cc1` was run?
**A.** 0.09 µM

**Q.** What about the EC50 [2] of the same compound?
**A.** 6.75 µM

**Q.** And the IC50 [3]?
**A.** 1.15 µM

**Q.** And the Ratio IC50 [4]?
**A.** 34

**Q.** What about the Ratio IC50 [5] of the same compound?
**A.** 27

**Q.** What about the IC50 [6] of the same compound?
**A.** 1.48 µM

**Q.** What about the IC50 [7] of the same compound?
**A.** 0.04 µM

**Q.** What about the “Ratio EC50” value [9] of the same compound?
**A.** 75

**Q.** `O=C(NO)c1ccc(CN2C(=O)CNC(=O)[C@H]2Cc2c[nH]c3ccccc23)cc1` was tested. Which EC50 [1] did it give?
**A.** 2.87 µM

**Q.** What about the EC50 [2] of the same compound?
**A.** 12.1 µM

**Q.** What about the IC50 [3] of the same compound?
**A.** 1.21 µM

**Q.** What about the Ratio IC50 [4] of the same compound?
**A.** 17

**Q.** What about the Ratio IC50 [5] of the same compound?
**A.** 11

**Q.** What about the IC50 [6] of the same compound?
**A.** 1.81 µM

**Q.** What about the IC50 [7] of the same compound?
**A.** 0.11 µM

**Q.** With `O=C1CN(Cc2ccc(C(=O)NO)cc2)c2ccccc2N1` as the compound, how does the EC50 [1] read?
**A.** 1.01 µM

**Q.** What about the EC50 [2] of the same compound?
**A.** 3.58 µM

**Q.** And the IC50 [3]?
**A.** 0.52 µM

**Q.** And the Ratio IC50 [4]?
**A.** 4

**Q.** What about the Ratio IC50 [5] of the same compound?
**A.** 3

**Q.** What about the IC50 [6] of the same compound?
**A.** 0.56 µM

**Q.** What about the IC50 [7] of the same compound?
**A.** 0.15 µM

**Q.** With `CC(C)(C)Oc1ccc(C[C@@H]2C(=O)Nc3ccccc3N2Cc2ccc(C(=O)NO)cc2)cc1` as the compound, how does the EC50 [1] read?
**A.** 0.08 µM

**Q.** And the EC50 [2]?
**A.** 2.75 µM

**Q.** And the IC50 [3]?
**A.** 0.25 µM

**Q.** What about the Ratio IC50 [4] of the same compound?
**A.** 28

**Q.** What about the Ratio IC50 [5] of the same compound?
**A.** 5

**Q.** What about the IC50 [6] of the same compound?
**A.** 1.44 µM

**Q.** And the IC50 [7]?
**A.** 0.05 µM

**Q.** And the “Selectivity Index” value [9]?
**A.** >13

Source: ChEMBL document CHEMBL1143301, “Novel HDAC6 isoform selective chiral small molecule histone deacetylase inhibitors” (Bioorg Med Chem Lett, 2009)
